# Assay results reported in ChEMBL document CHEMBL4613284, “A Class of Potent Inhibitors of the HIV-1 Nucleocapsid Protein Based on Aminopyrrolic Scaffolds” (ACS Med Chem Lett, 2020).
# Activity calls are given as the source filed them. The calls are words filed in the database; no cut-off is given here.
# How the values were obtained:
# [1] = molecular target: cTAR DNA; experiment: Binding affinity to HIV1 nucleocapsid protein (11 to 55 residues)-targeted Rh6G-5'-cTAR DNA-3'-Dabcyl assessed as inhibition of NC-induced viral Rh6G-5'-cTAR DNA-3'-Dabcyl destabilization by measuring fluorescence intensity up to 60 mins by fluorescence assay; format: nucleic-acid assay, Human immunodeficiency virus 1
# [2] = tested on: cTAR DNA; experiment: Binding affinity to HIV1 nucleocapsid protein (11 to 55 residues)-targeted Rh6G-5'-cTAR DNA-3'-Dabcyl/dTAR assessed as inhibition of NC-promoted annealing of Rh6G-5'-cTAR DNA-3'-Dabcyl/unlabeled dTAR at 4 uM after 25 hrs by spectrofluorimetry analysis relative to control; format: nucleic-acid assay; settings: Human immunodeficiency virus 1
# [3] = tested on: ssDNA; experiment: Competitive binding affinity to HIV1 S3G5 oligonucleotide assessed as apparent equilibrium dissociation constant of NC(11 to 55 residues) to S3G5 oligonucleotide at 5 uM and 20 degreeC by isothermal titration calorimetry (reference value: 0.15 +/ 0.1 microM); format: nucleic-acid assay; settings: Human immunodeficiency virus 1
# [4] = tested on: cTAR DNA; experiment: Binding affinity to HIV1 propidium iodide-labeled-5'-cTAR DNA at cTAR to compound complex stoichiometry ratio of 1:3 using 30 mM NaCl by fluorescence anisotropy assay; format: nucleic-acid assay; settings: Human immunodeficiency virus 1
# [5] = tested on: ssDNA; experiment: Competitive binding affinity to HIV1 S3G5 oligonucleotide at 20 degreeC by isothermal titration calorimetry; format: nucleic-acid assay; settings: Human immunodeficiency virus 1
# [6] = tested on: Human immunodeficiency virus 1; experiment: Binding affinity to HIV1 nucleocapsid protein (11 to 55 residues) assessed as change in fluorescence intensity of Trp37 residue up to 10 uM by fluorescence anisotropy assay
# [7] = tested on: PBS RNA; experiment: Binding affinity to HIV1 propidium iodide-labeled double stranded (-)/(+)-PBS sequence by fluorescence anisotropy assay; format: nucleic-acid assay; settings: Human immunodeficiency virus 1
# [8] = Cytotoxicity against human MT4 cells assessed as reduction in cell viability incubated for 5 days by MTT assay; format: cell-based
# [9] = tested on: Human immunodeficiency virus 1; experiment: Antiviral activity against HIV1 pNL4.3deltaenvLuc-ADA 8 pseudotyped virus infected in human U373-CD4-CCR5 cells assessed as reduction in viral infection measured after 48 hrs by luciferase assay; format: functional, organism-based; settings: Human immunodeficiency virus 1, 48 h
# [10] = tested on: cTAR DNA; experiment: Binding affinity to HIV1 fluorescein-labeled-5'-cTAR DNA at cTAR to compound complex stoichiometry ratio of 1:3 using 150 mM NaCl by fluorescence anisotropy assay; format: nucleic-acid assay; settings: Human immunodeficiency virus 1
# [11] = tested on: ssDNA; experiment: Competitive binding affinity to HIV1 S3G5 oligonucleotide assessed as apparent equilibrium dissociation constant of NC(11 to 55 residues) to S3G5 oligonucleotide at 20 uM and 20 degreeC by isothermal titration calorimetry (reference value: 0.15 +/- 0.1 microM); format: nucleic-acid assay; settings: Human immunodeficiency virus 1
# [12] = Cytotoxicity against human U373 cells expressing CD4-CCR5 assessed as reduction in cell viability incubated for 48 hrs by luciferase assay; format: cell-based, U-373MG ATCC; settings: U373 MG
# [13] = tested on: Human immunodeficiency virus 1; experiment: Antiviral activity against HIV1 3B infected in human MT4 cells assessed as protection against virus-induced cytopathic effect incubated for 5 days by MTT assay; format: functional, organism-based; settings: Human immunodeficiency virus 1, 3B, MT4, 120 h
# [14] = molecular target: ssDNA; experiment: Competitive binding affinity to HIV1 S3G5 oligonucleotide assessed as equilibrium dissociation constant by isothermal titration calorimetry; format: nucleic-acid assay, Human immunodeficiency virus 1
# [15] = molecular target: cTAR DNA; experiment: Binding affinity to HIV1 fluorescein-labeled-5'-cTAR DNA at cTAR to compound complex stoichiometry ratio of 1:3 using 80 mM NaCl by fluorescence anisotropy assay; format: nucleic-acid assay, Human immunodeficiency virus 1
# [16] = tested on: Human immunodeficiency virus 1; experiment: Binding affinity to HIV1 nucleocapsid protein (11 to 55 residues) assessed as increase in fluorescence intensity of Trp37 residue at 100 uM by fluorescence anisotropy assay
# [17] = tested on: PBS RNA; experiment: Binding affinity to HIV1 nucleocapsid protein (11 to 55 residues)-targeted Rh6G-5'-(+)-PBS-3'-Dabcyl/(-)-PBS assessed as inhibition of NC-promoted annealing of +/- PBS sequence at 4 uM by spectrofluorimetry analysis relative to control; format: nucleic-acid assay; settings: Human immunodeficiency virus 1
# [18] = tested on: cTAR DNA; experiment: Inhibition of annealing of HIV1 Rh6G5'-cTAR DNA-3'-Dabcyl/unlabeled dTAR at 4 uM after 25 hrs by spectrofluorimetry analysis; format: nucleic-acid assay; settings: Human immunodeficiency virus 1
# [19] = tested on: PBS RNA; experiment: Inhibition of annealing of HIV1 Rh6G-5'-(+)-PBS-3'-Dabcyl/(-)-PBS at 4 uM by spectrofluorimetry analysis relative to control; format: nucleic-acid assay; settings: Human immunodeficiency virus 1
# [20] = molecular target: cTAR DNA; experiment: Binding affinity to HIV1 fluorescein-labeled-5'-cTAR DNA at cTAR to compound complex stoichiometry ratio of 1:3 using 30 mM NaCl by fluorescence anisotropy assay; format: nucleic-acid assay, Human immunodeficiency virus 1
# [21] = Therapeutic index, ratio of CC50 for human U373 cells expressing CD4-CCR5 to IC50 for HIV1 pNL4.3deltaenvLuc-ADA 8 pseudotyped virus infected in human U373-CD4-CCR5 cells; format: toxicity, cell-based; settings: read-out: Ratio CC50/IC50
# [22] = tested on: Human immunodeficiency virus 1; experiment: Binding affinity to HIV1 nucleocapsid protein (11 to 55 residues) assessed as change in fluorescence intensity of Trp37 residue up to 100 uM by fluorescence based analysis
# [23] = Solubility of compound in water; format: physicochemical; settings: buffer
# [24] = tested on: cTAR DNA; experiment: Binding affinity to HIV1 nucleocapsid protein (11 to 55 residues)-targeted Rh6G-5'-cTAR DNA-3'-Dabcyl/dTAR assessed as inhibition of NC-promoted annealing of Rh6G-5'-cTAR DNA-3'-Dabcyl/unlabeled dTAR at 0.4 uM by spectrofluorimetry analysis; format: nucleic-acid assay; settings: Human immunodeficiency virus 1
# [25] = tested on: ssDNA; experiment: Binding affinity to HIV1 single stranded fluorescein-labeled-5'-S3G5 oligonucleotide at 5'-S3G5 oligonucleotide to compound stoichiometry ratio of 1:3 by fluorescence anisotropy assay; format: nucleic-acid assay; settings: Human immunodeficiency virus 1
smiles,measurement,setting,value
c1c[nH]c(CNCc2ccc(CNCc3ccc[nH]3)c3c(CNCc4ccc[nH]4)ccc(CNCc4ccc[nH]4)c23)c1,IC50,[1],10 µM
CCc1c(CNCc2ccc[nH]2)c(CC)c(CNCc2ccc[nH]2)c(CC)c1CNCc1ccc[nH]1,IC50,[1],150 µM
CCc1c(CNCCNCc2ccc[nH]2)c(CC)c(CNCCNCc2ccc[nH]2)c(CC)c1CNCCNCc1ccc[nH]1,IC50,[1],58 µM
CCc1c(CN)c(CC)c2c(CC)c1CNCc1ccc([nH]1)CNCc1c(CC)c(CNCc3ccc[nH]3)c(CC)c(c1CC)CNCc1ccc([nH]1)CNC2,inhibition,[2],100%
same,Kapp,[3],1.5 µM
same,Activity,[4],Active
same,Activity,[5],Dose-dependent effect
same,Activity,[6],inactive
same,Activity,[7],inactive
same,CC50 at 120 h,[8],24 µM
same,IC50,[9],1.8 µM
same,Activity,[10],inactive
same,Kapp,[11],12 µM
same,IC50,[12],15 µM
same,IC50,[13],13.5 µM
same,Kd,[14],0.26 µM
same,Kd,[15],2 µM
same,Activity,[16],Active
same,inhibition,[17],100%
same,inhibition,[18],Active
same,inhibition,[19],100%
same,Kd,[20],0.23 µM
same,selectivity ratio,[21],8
same,Activity,[22],inactive
same,IC50,[1],4.4 µM
same,solubility,[23],Soluble
same,Activity,[24],Active
same,K,[25],0.6 µM
CCc1c(CN)c(CC)c2c(CC)c1CNCc1ccc([nH]1)CNCc1c(CC)c(CN)c(CC)c(c1CC)CNCc1ccc([nH]1)CNC2,IC50,[1],4.9 µM
CCc1c(CN[C@H]2CCCC[C@@H]2NCc2ccc[nH]2)c(CC)c(CN[C@H]2CCCC[C@@H]2NCc2ccc[nH]2)c(CC)c1CN[C@H]1CCCC[C@@H]1NCc1ccc[nH]1,IC50,[1],93 µM
c1c[nH]c(CNCc2cc(CNCc3ccc[nH]3)c(CNCc3ccc[nH]3)c(CNCc3ccc[nH]3)c2)c1,IC50,[1],130 µM
CCc1c(CN[C@@H]2CCCC[C@H]2NCc2ccc[nH]2)c(CC)c(CN[C@@H]2CCCC[C@H]2NCc2ccc[nH]2)c(CC)c1CN[C@@H]1CCCC[C@H]1NCc1ccc[nH]1,IC50,[1],96 µM
CCc1c(CN[C@@H]2CCCC[C@H]2N)c(CC)c2c(CC)c1CN[C@@H]1CCCC[C@H]1NCc1ccc([nH]1)CN[C@@H]1CCCC[C@H]1NC2,IC50,[1],60 µM
CCc1c2c(CC)c(CN[C@H]3CCCC[C@@H]3N)c(CC)c1CN[C@H]1CCCC[C@@H]1NCc1ccc([nH]1)CN[C@H]1CCCC[C@@H]1NC2,IC50,[1],63 µM
c1c[nH]c(CNCc2c(CNCc3ccc[nH]3)c(CNCc3ccc[nH]3)c(CNCc3ccc[nH]3)c(CNCc3ccc[nH]3)c2CNCc2ccc[nH]2)c1,IC50,[1],52 µM
CCc1c(CNCc2ccc[nH]2)c(CC)c2c(CC)c1CNCc1ccc([nH]1)CNCc1c(CC)c(CNCc3ccc[nH]3)c(CC)c(c1CC)CNCc1ccc([nH]1)CNC2,IC50,[1],17 µM
